Data: PubChem BioAssay AID248 (DTP/NCI, 2004)
Where “and” joins values, the source holds several entries; their conditions need not be identical. Equal values may be shown once. Toxic doses and inconclusive results are not listed.

Test system: L1210 leukemia ip in BDF1 mice, survival T/C
Test: NCI In Vivo Anticancer Drug Screen. Data for tumor model L1210 Leukemia (intraperitoneal) in B6D2F1 (BDF1) mice
Conditions: endpoint: mean survival time, higher = longer survival
Outline: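 Tumor cells were implanted, animals were treated, and survival was followed. The result divides the treated measurement by the vehicle-control measurement.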

[1] = dose: 100.0 mg/kg/injection, schedule: Q04DX002 (ip), vehicle: Klucel (hydroxypropylcellulose) (HPC)
[2] = dose: 200.0 mg/kg/injection, schedule: Q04DX002 (ip), vehicle: Klucel (hydroxypropylcellulose) (HPC)
[3] = dose: 20.0 mg/kg/injection, schedule: Q01DX001 (ip), vehicle: water
[4] = dose: 100.0 mg/kg/injection, schedule: Q01DX009 (ip), vehicle: Klucel (hydroxypropylcellulose) (HPC)
[5] = dose: 100.0 mg/kg/injection, schedule: Q04DX003 (ip), vehicle: Klucel (hydroxypropylcellulose) (HPC)
[6] = dose: 200.0 mg/kg/injection, schedule: Q01DX009 (ip), vehicle: Klucel (hydroxypropylcellulose) (HPC)
[7] = dose: 200.0 mg/kg/injection, schedule: Q04DX003 (ip), vehicle: Klucel (hydroxypropylcellulose) (HPC)
[8] = dose: 400.0 mg/kg/injection, schedule: Q01DX009 (ip), vehicle: Klucel (hydroxypropylcellulose) (HPC)
[9] = dose: 100.0 mg/kg/injection, schedule: Q01DX009 (ip), vehicle: saline with Tween-80

CCCCCCCCP(C)(=O)CCCCCCCC
T/C [1]: 105 % of control
T/C [2]: 102 % of control

O=C(O)COc1ccc(Cl)c2ccccc12
T/C [1]: 96 % of control
T/C [2]: 100 % of control

Cc1cn(CC(C)C)c(=O)n(-c2ccccc2)c1=O
T/C (dose: 100.0 mg/kg/injection, schedule: Q01DX Z (ip), vehicle: methylcellulose (MC)): 95 % of control

CNCCC(=O)NCC1C(c2ccccc2)C1c1ccccc1 (configuration not stated)
T/C (dose: 6.25 mg/kg/injection, schedule: Q04DX002 (ip), vehicle: saline with Tween-80): 97 % of control
T/C (dose: 12.5 mg/kg/injection, schedule: Q04DX002 (ip), vehicle: saline with Tween-80): 93 % of control and 96 % of control
T/C (dose: 25.0 mg/kg/injection, schedule: Q04DX002 (ip), vehicle: saline with Tween-80): 100 % of control
T/C (dose: 50.0 mg/kg/injection, schedule: Q04DX002 (ip), vehicle: saline with Tween-80): 91 % of control
T/C (dose: 100.0 mg/kg/injection, schedule: Q04DX002 (ip), vehicle: saline with Tween-80): 93 % of control and 88 % of control

CC(=O)C1=CC(=O)c2ccccc2C1=O
T/C [3]: 103 % of control
T/C (dose: 40.0 mg/kg/injection, schedule: Q01DX001 (ip), vehicle: water): 95 % of control
T/C (dose: 80.0 mg/kg/injection, schedule: Q01DX001 (ip), vehicle: water): 93 % of control

O=C(c1ccccc1)N1C(c2ccccc2)C1(c1ccccc1)C1(c2ccccc2)SCCCS1 (configuration not stated)
T/C [4]: 94 % of control
T/C [5]: 108 % of control
T/C [6]: 101 % of control
T/C [7]: 100 % of control
T/C [8]: 91 % of control
T/C (dose: 400.0 mg/kg/injection, schedule: Q04DX003 (ip), vehicle: Klucel (hydroxypropylcellulose) (HPC)): 97 % of control

COC1OC(CO)C(O)C(OC)C1NC(C)=O (configuration not stated)
T/C (dose: 100.0 mg/kg/injection, schedule: Q01DX001 (ip), vehicle: saline): 103 % of control
T/C (dose: 200.0 mg/kg/injection, schedule: Q01DX001 (ip), vehicle: saline): 106 % of control
T/C (dose: 400.0 mg/kg/injection, schedule: Q01DX001 (ip), vehicle: saline): 101 % of control

Cc1ccc2sc(C)cc(=O)c2c1
T/C (dose: 100.0 mg/kg/injection, schedule: Q01DX001 (ip), vehicle: carboxymethylcellulose (CMC)): 100 % of control
T/C (dose: 200.0 mg/kg/injection, schedule: Q01DX001 (ip), vehicle: carboxymethylcellulose (CMC)): 100 % of control
T/C (dose: 400.0 mg/kg/injection, schedule: Q01DX001 (ip), vehicle: carboxymethylcellulose (CMC)): 98 % of control

CC[C@@]1(O)C[C@H](OC2CC(N(C)C)C(OC3CC(O)C(OC4CCC(=O)C(C)O4)C(C)O3)C(C)O2)c2c(cc3c(c2O)C(=O)c2c(O)ccc(O)c2C3=O)[C@H]1C(=O)OC (some centres not stated)
T/C (dose: 0.5 mg/kg/injection, schedule: Q01DX003 (ip), vehicle: saline): 111 % of control
T/C (dose: 0.59 mg/kg/injection, schedule: Q01DX001 (ip), vehicle: saline): 107 % of control
T/C (dose: 0.59 mg/kg/injection, schedule: Q01DX009 (ip), vehicle: saline): 111 % of control
T/C (dose: 0.59 mg/kg/injection, schedule: Q04DX003 (ip), vehicle: saline): 109 % of control
T/C (dose: 0.65 mg/kg/injection, schedule: Q01DX009 (ip), vehicle: water): 122 % of control
T/C (dose: 0.75 mg/kg/injection, schedule: Q01DX009 (ip), vehicle: saline): 121 % of control
T/C (dose: 0.89 mg/kg/injection, schedule: Q01DX001 (ip), vehicle: saline): 107 % of control
T/C (dose: 0.89 mg/kg/injection, schedule: Q01DX009 (ip), vehicle: saline): 113 % of control
T/C (dose: 0.89 mg/kg/injection, schedule: Q04DX003 (ip), vehicle: saline): 105 % of control
T/C (dose: 1.0 mg/kg/injection, schedule: Q01DX003 (ip), vehicle: saline): 113 % of control
T/C (dose: 1.0 mg/kg/injection, schedule: Q01DX009 (ip), vehicle: saline): 119 % of control
T/C (dose: 1.04 mg/kg/injection, schedule: Q04DX003 (ip), vehicle: water): 112 % of control
T/C (dose: 1.33 mg/kg/injection, schedule: Q01DX001 (ip), vehicle: saline): 102 % of control
T/C (dose: 1.33 mg/kg/injection, schedule: Q01DX009 (ip), vehicle: saline): 120 % of control
T/C (dose: 1.33 mg/kg/injection, schedule: Q04DX003 (ip), vehicle: saline): 111 % of control
T/C (dose: 1.73 mg/kg/injection, schedule: Q04DX003 (ip), vehicle: water): 112 % of control
T/C (dose: 2.0 mg/kg/injection, schedule: Q01DX001 (ip), vehicle: saline): 109 % of control
T/C (dose: 2.0 mg/kg/injection, schedule: Q04DX003 (ip), vehicle: saline): 107 % of control
T/C (dose: 2.59 mg/kg/injection, schedule: Q01DX001 (ip), vehicle: water): 112 % of control
T/C (dose: 3.0 mg/kg/injection, schedule: Q01DX001 (ip), vehicle: saline): 117 % of control
T/C (dose: 3.0 mg/kg/injection, schedule: Q01DX009 (ip), vehicle: saline): 103 % of control
T/C (dose: 3.0 mg/kg/injection, schedule: Q01DX009 (ip), vehicle: water): 96 % of control
T/C (dose: 12.0 mg/kg/injection, schedule: Q01DX001 (ip), vehicle: water): 113 % of control
T/C [3]: 98 % of control

Clc1nnc(Nc2ccccc2)c2ccccc12
T/C [4]: 96 % of control
T/C [6]: 93 % of control
T/C (dose: 200.0 mg/kg/injection, schedule: Q04DX003 (ip), vehicle: saline): 93 % of control
T/C (dose: 400.0 mg/kg/injection, schedule: Q04DX003 (ip), vehicle: saline): 91 % of control

CC(C)(C)OC(=O)N1CC=CCN1C(=O)OC(C)(C)C
T/C (dose: 100.0 mg/kg/injection, schedule: Q01DX001 (ip), vehicle: other): 98 % of control
T/C (dose: 200.0 mg/kg/injection, schedule: Q01DX001 (ip), vehicle: other): 93 % of control
T/C (dose: 400.0 mg/kg/injection, schedule: Q01DX001 (ip), vehicle: other): 102 % of control

CC(C)(CCCO)c1ccccc1
T/C (dose: 50.0 mg/kg/injection, schedule: Q01DX009 (ip), vehicle: saline with Tween-80): 96 % of control
T/C [9]: 104 % of control

COC(=O)c1ccccc1-c1c(C)cccc1[N+](=O)[O-]
T/C [9]: 105 % of control
T/C (dose: 200.0 mg/kg/injection, schedule: Q01DX009 (ip), vehicle: saline with Tween-80): 90 % of control
T/C (dose: 400.0 mg/kg/injection, schedule: Q01DX009 (ip), vehicle: saline with Tween-80): 100 % of control

COc1cc(/C=N\N=C\c2ccc(OC(=O)c3cc(OC)c(OC)c(OC)c3)c(OC)c2)ccc1OC(=O)c1cc(OC)c(OC)c(OC)c1
T/C [4]: 95 % of control
T/C [6]: 95 % of control
T/C [8]: 102 % of control

CN(Cc1cnc2nc(N)nc(N)c2n1)c1c(Cl)cc(C(=O)NC(CCC(=O)O)C(=O)O)cc1Br (configuration not stated)
T/C (dose: 12.5 mg/kg/injection, schedule: Q01DX Z (ip), vehicle: saline): 162 % of control
T/C (dose: 25.0 mg/kg/injection, schedule: Q01DX Z (ip), vehicle: saline): 196 % of control
T/C (dose: 50.0 mg/kg/injection, schedule: Q01DX Z (ip), vehicle: saline): 241 % of control and 267 % of control
T/C (dose: 200.0 mg/kg/injection, schedule: Q01DX Z (ip), vehicle: saline): 101 % of control

CC(C)NC1(C(N)=O)CCN(Cc2ccccc2)CC1
T/C (dose: 50.0 mg/kg/injection, schedule: Q01DX009 (ip), vehicle: Klucel (hydroxypropylcellulose) (HPC)): 95 % of control
T/C (dose: 50.0 mg/kg/injection, schedule: Q04DX003 (ip), vehicle: Klucel (hydroxypropylcellulose) (HPC)): 98 % of control
T/C [4]: 100 % of control
T/C [5]: 93 % of control
T/C [6]: 104 % of control
T/C [7]: 95 % of control

Cc1sc2ccc(-c3ccccc3)cc2[n+]1C
T/C (dose: 75.0 mg/kg/injection, schedule: Q01DX001 (ip), vehicle: saline): 105 % of control
T/C (dose: 150.0 mg/kg/injection, schedule: Q01DX001 (ip), vehicle: saline): 102 % of control
T/C (dose: 300.0 mg/kg/injection, schedule: Q01DX001 (ip), vehicle: saline): 107 % of control
